Test results published in the NIST ThermoML archive (doi:10.1021/acs.jced.8b00765).
Several values for one entry are separate records, joined by “and”; a condition that tells them apart may be missing. Identical values can stand only once.

What was measured:
[1] = Liquid; for vapor or sublimation pressure: Closed cell (Static) method; for mass density: 101.33 kPa, Vibrating tube method
[2] = refractive index (Na D-line) (dimensionless); settings: 293.15 K; 101.33 kPa; Liquid; Standard Abbe refractometry

CC(C)O [propan-2-ol]
[1]
Settings	mass density [kg/m3]	vapor or sublimation pressure [kPa]
293.16 K	–	4.2
293.18 K	–	4.2
298.17 K	–	5.8
303.15 K	–	7.8
303.16 K	–	7.9
308.15 K	–	10.5
313.14 K	–	13.9
313.15 K	768	–
313.16 K	–	14

Settings	refractive index
[2]	1.377

C1CCCCC1 [cyclohexane]
[1]
Settings	mass density [kg/m3]	vapor or sublimation pressure [kPa]
293.17 K	–	10.4
293.21 K	–	10.6
298.18 K	–	13.4
298.19 K	–	13.1
303.16 K	–	16.4
303.18 K	–	16.4
308.15 K	765	20.3
313.17 K	–	24.9

Settings	refractive index
[2]	1.426

C=CCCCC [hex-1-ene]
[1]
Settings	mass density [kg/m3]	vapor or sublimation pressure
293.18 K	–	19.9 kPa and 20 kPa
298.18 K	–	24.8 kPa
303.16 K	–	30.5 kPa
303.17 K	–	30.6 kPa
308.16 K	–	37.2 kPa
313.15 K	655	45.1 kPa
313.16 K	–	45.1 kPa

Settings	refractive index
[2]	1.388

CCCCC [pentane]
[1]
Settings	mass density [kg/m3]	vapor or sublimation pressure [kPa]
288.18 K	–	46.5
293.15 K	626	–
293.18 K	–	56.6
293.2 K	–	56.6
298.18 K	–	68.5
298.19 K	–	68.5
303.17 K	–	82.2
303.18 K	–	82.2
308.17 K	–	97.9

Settings	refractive index
[2]	1.358
